Data set [1] concerns mice. Kind of data set: Glucose tolerance test (GTT). The note with it: 24 h GTT, s.c., dose range 2-5 nmol/kg, percent of vehicle. Format: in vivo, mouse. In a few lines:
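Compounds diluted in PBS from 1 mM DMSO stocks and given subcutaneously 15 min (5-6 h fast), 4 h (16 h overnight fast), 16 h or 24 h before intraperitoneal glucose (2 g/kg). Tail blood glucose read at 10–120 min post-glucose, at least 6 mice per time-point. Glucose AUC over time determined.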

Data set [2] concerns the target T1, GLP-1R (Homo sapiens, UniProt P43220). Kind of data set: HitHunter cAMP assay (GLP-1R). The note with it: cAMP; for Emax: read-out: (Emax) GLP-1R. Format: cell-based. In a few lines:
(§1)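 cAMP accumulation read by luminescent HitHunter immunocompetition after 30 min room-temperature agonist stimulation. Agonists tested as 22-point twofold dilutions, in duplicate, on 10,000 cells/well in HBSS containing 625 μM IBMX, 10 mM HEPES and 0.2% BSA.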
(cAMP levels reflect the balance of adenylyl cyclase and phosphodiesterase activity.)

Data set [3] concerns the target T2, GIP-R (Homo sapiens, UniProt P48546).
T2 sequence (P48546 22-466): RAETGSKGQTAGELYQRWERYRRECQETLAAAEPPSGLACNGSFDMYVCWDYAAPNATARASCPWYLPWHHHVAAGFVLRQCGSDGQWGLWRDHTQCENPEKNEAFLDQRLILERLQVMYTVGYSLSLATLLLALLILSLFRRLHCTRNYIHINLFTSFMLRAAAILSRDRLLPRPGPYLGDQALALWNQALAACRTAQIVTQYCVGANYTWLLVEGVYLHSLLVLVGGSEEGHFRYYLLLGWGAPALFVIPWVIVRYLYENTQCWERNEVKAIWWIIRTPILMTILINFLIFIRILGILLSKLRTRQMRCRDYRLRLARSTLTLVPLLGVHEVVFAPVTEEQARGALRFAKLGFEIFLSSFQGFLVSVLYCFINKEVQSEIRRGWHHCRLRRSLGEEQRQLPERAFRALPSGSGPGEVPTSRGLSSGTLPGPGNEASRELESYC
Kind of data set: HitHunter cAMP assay (GIP-R). The note with it: cAMP; for Emax: read-out: (Emax) GIP-R. Format: cell-based. The procedure, abridged: as §1

In data set [4] the target is T1, GLP-1R. Kind of data set: PathHunter β-arrestin assay. The data set is classed as cell-based. The procedure, abridged: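 β-Arrestin recruitment measured by PathHunter enzyme-fragment luminescence, read after 3 h dark incubation at room temperature with detection solution. Beforehand, agonist in a 22-point 2-fold series was applied in duplicate for 90 min at 37 °C to 5,000 cells/well in BSA-containing (0.2%) medium.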

Data set [5] deals with mice. Kind of data set: Conditioned taste aversion (CTA) in mice. The data set is classed as in vivo, mouse. The note with it: s.c., 30 nmol/kg, saccharine preference vs vehicle. The procedure:
A value of CTA=0.0-0.6 indicates significant aversion to a compound. The conditioned taste aversion assay measures the preference for a dilute saccharin solution that is associated with compound administration.
One week before start of experiment (Day-7), animals were transferred to single house double grommet cages. A 50 ml water bottle was placed, and consistently replaced when refilled in the same grommet to habituate the animal to a “water” side. After 7 days of baseline water consumption, animals began the taste preference procedure. On Day 1, the animals were weighed and deprived of water at […]. On acquisition day (Day 2), mice had access to a single bottle containing 0.15% saccharin solution, on the opposite side to the “water” habituated side and allowed to consume for 3 h, from 6 pm until 9 pm. The saccharine bottles were then removed and weighed to record the 3 h consumption. […] On Day 3, the water was removed and weighed at 6 pm. On Day 4, both saccharine and water bottles were weighed and returned simultaneously to respective grommet at 6 pm. On Day 5, the bottles were removed at 6 pm and weighed. Saccharine consumption was measured as a percent of the total amount of fluid consumed. The reduction of saccharin consumption during the retrieval was used as a measure of CTA strength. Liraglutide and semaglutide were used as positive controls.

[6] abbreviates: Table 3A, read-out: EC50 GLP-1R/nM.
The mark [7] stands for this setting: Table 3A, read-out: EC50 GIP-R/nM.
Setting [8] is: PathHunter β-arrestin assay, read-out: β-arrestin activity EC50.
The mark [9] stands for this setting: Table 3, read-out: EC50 GLP-1R/nM.
[10] abbreviates: Table 3, read-out: EC50 GIP-R/nM.

4 molecules from patent publication US20260176320A1, “MODULATORS OF G-PROTEIN COUPLED RECEPTORS” (priority 2018, published 2026) can be followed below.

Read-outs that look alike come from different tables or passages of the source.

T1 sequence (P43220 24-463): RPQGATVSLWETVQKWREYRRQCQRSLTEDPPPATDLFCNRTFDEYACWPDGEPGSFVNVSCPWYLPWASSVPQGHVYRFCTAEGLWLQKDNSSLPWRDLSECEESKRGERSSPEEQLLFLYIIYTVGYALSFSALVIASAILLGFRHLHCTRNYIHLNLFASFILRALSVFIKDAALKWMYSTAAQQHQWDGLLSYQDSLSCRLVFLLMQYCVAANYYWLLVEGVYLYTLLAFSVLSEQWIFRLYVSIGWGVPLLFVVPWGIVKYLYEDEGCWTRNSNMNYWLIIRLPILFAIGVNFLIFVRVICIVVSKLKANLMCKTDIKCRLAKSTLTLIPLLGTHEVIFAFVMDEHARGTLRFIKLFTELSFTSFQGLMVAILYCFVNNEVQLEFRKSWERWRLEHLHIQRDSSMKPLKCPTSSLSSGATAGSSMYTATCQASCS

The Emax is the greatest response seen or fitted, relative to the assay's reference. For the molecule `CCCCCCCCCCCCCCCC(=O)N[C@@H](CCC(=O)NCCCC[C@H](NC(=O)[C@H](CO)NC(=O)[C@@H]1CCCN1C(=O)[C@@H]1CCCN1C(=O)[C@@H]1CCCN1C(=O)[C@H](C)NC(=O)CNC(=O)[C@H](CO)NC(=O)[C@H](CO)NC(=O)[C@@H]1CCCN1C(=O)CNC(=O)CNC(=O)[C@H](C)NC(=O)[C@H](CC(C)C)NC(=O)[C@H](CC(C)C)NC(=O)[C@H](Cc1c[nH]c2ccccc12)NC(=O)[C@H](CC(N)=O)NC(=O)[C@@H](NC(=O)[C@H](Cc1ccccc1)NC(=O)[C@H](CCC(=O)O)NC(=O)C(C)(C)NC(=O)[C@H](C)NC(=O)[C@H](C)NC(=O)[C@H](CCC(N)=O)NC(=O)[C@H](CCCCN)NC(=O)[C@H](CC(=O)O)NC(=O)[C@H](CC(C)C)NC(=O)[C@H](Cc1ccc(O)cc1)NC(=O)[C@@H](NC(=O)[C@H](CO)NC(=O)[C@H](Cc1ccc(O)cc1)NC(=O)[C@H](CC(=O)O)NC(=O)[C@H](CO)NC(=O)[C@@H](NC(=O)[C@H](Cc1ccccc1)NC(=O)[C@@H](NC(=O)CNC(=O)[C@H](CCC(=O)O)NC(=O)CCNC(=O)Cn1ccccc1=O)[C@@H](C)O)[C@@H](C)O)[C@@H](C)CC)C(C)C)C(N)=O)C(=O)O` [Compound 234], the AUC score in data set [1] is on record as 3 (AUC score 3 = 51-75%). The Emax in data set [2] (Table 3A) turned out to be 97%; in data set [3] (Table 3A), 76%. Further, the EC50 in data set [2] (setting [6]) was 0.1 to 1 nM; in data set [3] (setting [7]), 1 to 10 nM; in data set [4] (setting [8]), more than 1000 nM.
Consider `CCCCCCCCCCCCCCCC(=O)N[C@@H](CCC(=O)NCCCC[C@H](NC(=O)[C@H](CO)NC(=O)[C@@H]1CCCN1C(=O)[C@@H]1CCCN1C(=O)[C@@H]1CCCN1C(=O)[C@H](C)NC(=O)CNC(=O)[C@H](CO)NC(=O)[C@H](CO)NC(=O)[C@@H]1CCCN1C(=O)CNC(=O)CNC(=O)[C@H](C)NC(=O)[C@H](CC(C)C)NC(=O)[C@H](CC(C)C)NC(=O)[C@H](Cc1c[nH]c2ccccc12)NC(=O)[C@H](CC(N)=O)NC(=O)[C@@H](NC(=O)[C@H](Cc1ccccc1)NC(=O)[C@H](CCC(=O)O)NC(=O)C(C)(C)NC(=O)[C@H](C)NC(=O)[C@H](C)NC(=O)[C@H](CCC(N)=O)NC(=O)[C@H](CCCCN)NC(=O)[C@H](CC(=O)O)NC(=O)[C@H](CC(C)C)NC(=O)[C@H](Cc1ccc(O)cc1)NC(=O)[C@@H](NC(=O)[C@H](CO)NC(=O)[C@H](Cc1ccc(O)cc1)NC(=O)[C@H](CC(=O)O)NC(=O)[C@H](CO)NC(=O)[C@@H](NC(=O)[C@H](Cc1ccccc1)NC(=O)[C@@H](NC(=O)CNC(=O)[C@H](CCC(=O)O)NC(=O)CNC(=O)CCN1CCCCC1=O)[C@@H](C)O)[C@@H](C)O)[C@@H](C)CC)C(C)C)C(N)=O)C(=O)O` [Compound 1], for which, in data set [1], the AUC score was 3 (AUC score 3 = 51-75%). The Emax was 97% in data set [2] (Table 3), 97% in data set [2] (Table 3A), 23% in data set [3] (Table 3) and 23% in data set [3] (Table 3A). Also, the EC50 in data set [2] (setting [9]) was 0.1 to 1 nM; in data set [2] (setting [6]) it was 0.1 to 1 nM; in data set [3] (setting [10]), 1 to 10 nM; in data set [3] (setting [7]) it was 10 to 100 nM; in data set [4] (setting [8]), more than 1000 nM.
Regarding `CCCCCCCCCCCCCCCC(=O)N[C@@H](CCC(=O)NCCCC[C@H](NC(=O)[C@H](CO)NC(=O)[C@@H]1CCCN1C(=O)[C@@H]1CCCN1C(=O)[C@@H]1CCCN1C(=O)[C@H](C)NC(=O)CNC(=O)[C@H](CO)NC(=O)[C@H](CO)NC(=O)[C@@H]1CCCN1C(=O)CNC(=O)CNC(=O)[C@H](C)NC(=O)[C@H](CC(C)C)NC(=O)[C@H](CC(C)C)NC(=O)[C@H](Cc1c[nH]c2ccccc12)NC(=O)[C@H](CC(N)=O)NC(=O)[C@@H](NC(=O)[C@H](Cc1ccccc1)NC(=O)[C@H](CCC(=O)O)NC(=O)C(C)(C)NC(=O)[C@H](C)NC(=O)[C@H](C)NC(=O)[C@H](CCC(N)=O)NC(=O)[C@H](CCCCN)NC(=O)[C@H](CC(=O)O)NC(=O)[C@H](CC(C)C)NC(=O)[C@H](Cc1ccc(O)cc1)NC(=O)[C@@H](NC(=O)[C@H](CO)NC(=O)[C@H](Cc1ccc(O)cc1)NC(=O)[C@H](CC(=O)O)NC(=O)[C@H](CO)NC(=O)[C@@H](NC(=O)[C@H](Cc1ccccc1)NC(=O)[C@@H](NC(=O)CNC(=O)[C@H](CCC(=O)O)NC(=O)CSCC(=O)NCCN1CCC(O)CC1=O)[C@@H](C)O)[C@@H](C)O)[C@@H](C)CC)C(C)C)C(N)=O)C(=O)O` (single isomer, unassigned) [Compound 202], the EC50 is less than 0.1 nM in data set [2] (EC50 GLP-1R/nM, Table 3A); 0.1 to 1 nM in data set [3] (EC50 GIP-R/nM, Table 3A); more than 1000 nM in data set [4]. Moreover, the Emax in data set [3] (Table 3A) worked out at 67%. For the same molecule, in data set [5], the CTA score is on record as 4 (Score 4 = 76-100%).
For `CCCCCCCCCCCCCCCC(=O)N[C@@H](CCC(=O)NCCCC[C@H](NC(=O)[C@H](CO)NC(=O)[C@@H]1CCCN1C(=O)[C@@H]1CCCN1C(=O)[C@@H]1CCCN1C(=O)[C@H](C)NC(=O)CNC(=O)[C@H](CO)NC(=O)[C@H](CO)NC(=O)[C@@H]1CCCN1C(=O)CNC(=O)CNC(=O)[C@H](C)NC(=O)[C@H](CC(C)C)NC(=O)[C@H](CC(C)C)NC(=O)[C@H](Cc1c[nH]c2ccccc12)NC(=O)[C@H](CC(N)=O)NC(=O)[C@@H](NC(=O)[C@H](Cc1ccccc1)NC(=O)[C@H](CCC(=O)O)NC(=O)C(C)(C)NC(=O)[C@H](C)NC(=O)[C@H](C)NC(=O)[C@H](CCC(N)=O)NC(=O)[C@H](CCCCN)NC(=O)[C@H](CC(=O)O)NC(=O)[C@H](CC(C)C)NC(=O)[C@H](Cc1ccc(O)cc1)NC(=O)[C@@H](NC(=O)[C@H](CO)NC(=O)[C@H](Cc1ccc(O)cc1)NC(=O)[C@H](CC(=O)O)NC(=O)[C@H](CO)NC(=O)[C@@H](NC(=O)[C@H](Cc1ccccc1)NC(=O)[C@@H](NC(=O)CNC(=O)[C@H](CCC(=O)O)NC(=O)CCCNC(=O)CN1CCCCC1=O)[C@@H](C)O)[C@@H](C)O)[C@@H](C)CC)C(C)C)C(N)=O)C(=O)O` [Compound 16], the AUC score in data set [1] is recorded as 2 (AUC score 2 = 26-50%). Also, the Emax in data set [2] (Table 3) is 97%; in data set [2] (Table 3A), 97%; in data set [3] (Table 3), 22%; in data set [3] (Table 3A) it was 22%. Moreover, the EC50 in data set [2] (setting [9]) is less than 0.1 nM; in data set [2] (setting [6]), less than 0.1 nM; in data set [3] (setting [10]) it was 1 to 10 nM; in data set [3] (setting [7]), 10 to 100 nM; in data set [4] (setting [8]), less than 10 nM.
